# Measured values as given in patent publication US11324219B2, “Amide compound or salt thereof, agricultural and horticultural microbicide comprising the compound and the salt, and method for using the agricultural and horticultural microbicide” (Nihon Nohyaku Co., Ltd., priority 2018, dated 2022).
smiles,measurement,value
"CCS(=O)(=O)c1cc(C(F)(F)F)ccc1C(=O)Nc1oc(C(F)(F)F)cc1Br [Compound 1-23, N-[3-bromo-5-(trifluoromethyl)furan-2-yl]-2-(ethylsulfonyl)-4-(trifluoromethyl)benzamide]",melting point,160 to 162 °C
